From patent US20240279249A1, “Compound, Coating Composition Comprising Same, Organic Light-Emitting Device Using Same, and Manufacturing Method Therefor” (LG Chem, Ltd., priority 2021, published 2024) come the findings set out here.

The nature of data set [1]: Film retention rate / solvent resistance: UV-vis absorption of heat-treated film after immersion in cyclohexanone. The class given is physicochemical. The conditions noted are these: film from 4 wt % solution in cyclohexanone, 100 nm on quartz, heat-treated 190° C. to 200° C. in nitrogen 30 minutes, immersed in cyclohexanone 10 minutes; higher absorbance = more film retained. The method, then:
Thereafter, after the substrate was heat-treated at a temperature of 190° C. to 200° C. in a nitrogen atmosphere for 30 minutes, the UV-vis absorption spectrum was measured. Subsequently, the same sample was immersed in cyclohexanone for 10 minutes and remove, the solvent was dried from the sample, and then the UV-vis absorption spectrum was also measured.
In the process of manufacturing the device, the film is retained while being cured during the heat treatment. The higher absorbance means that a relatively more residue remains on the film.

Data set [2] in a line: Solubility at 5 wt % relative to each solvent. The text has this:
In a solution process organic light emitting device, when an ink solvent is selected for the process, the ink solvent needs to dissolve both a host and a dopant.

The mark [3] stands for this setting: 5 wt % relative to solvent, Acetone.
Where [4] appears, read: 5 wt % relative to solvent, Dichloromethane.
[5] abbreviates: 5 wt % relative to solvent, Toluene.

Read-outs that look alike come from different tables or passages of the source.

As for `C=Cc1ccc([B-](c2c(F)c(F)c(C(F)(F)F)c(F)c2F)(c2c(F)c(F)c(C(F)(F)F)c(F)c2F)c2c(F)c(F)c(C(F)(F)F)c(F)c2F)cc1.Cc1ccc([I+]c2ccc(C(C)C)cc2)cc1` [Comparative Compound 1, (4-isopropylphenyl) (p-tolyl) iodonium tris(2,3,5,6-tetrafluoro-4-(trifluoromethyl)phenyl) (4-vinylphenyl)borate, reference compound], the “Absorbance @ 350 nm” value in data set [1] came out at 0.483.
For `C=Cc1c(F)c(F)c([B-](c2c(F)c(F)c(C(F)(F)F)c(F)c2F)(c2c(F)c(F)c(C(F)(F)F)c(F)c2F)c2c(F)c(F)c(C(F)(F)F)c(F)c2F)c(F)c1F.Cc1ccc([I+]c2ccc(C(C)C)cc2)cc1` [Comparative Compound 2, (4-isopropylphenyl) (p-tolyl)iodonium tris(2,3,5,6-tetrafluoro-4-(trifluoromethyl)phenyl) (2,3,5,6-tetrafluoro-4-vinylphenyl) borate, reference compound], the “Absorbance @ 350 nm” value in data set [1] is listed as 0.526.
For `Cc1ccc([I+]c2ccc(C(C)C)cc2)cc1.Fc1c(F)c([B-](c2c(F)c(F)c(C(F)(F)F)c(F)c2F)(c2c(F)c(F)c(C(F)(F)F)c(F)c2F)c2c(F)c(F)c(C(F)(F)F)c(F)c2F)c(F)c(F)c1-c1ccc2c(c1)CC2` [Comparative Compound 3, (4-isopropylphenyl) (p-tolyl)iodonium(4-(bicyclo[4.2.0]octa-1,3,5-trien-3-yl)-2,3,5,6-tetrfluorophenyl)tris(2,3,5,6-tetrafluoro-4-(trifluoromethyl)phenyl)borate, reference compound], in data set [1], the “Absorbance @ 350 nm” value is on record as 0.392.
As to `C=Cc1ccc(-c2c(F)c(F)c([B-](c3c(F)c(F)c(-c4ccc(C=C)cc4)c(F)c3F)(c3c(F)c(F)c(-c4ccc(C=C)cc4)c(F)c3F)c3c(F)c(F)c(-c4ccc(C=C)cc4)c(F)c3F)c(F)c2F)cc1.Cc1ccc([I+]c2ccc(C(C)C)cc2)cc1` [Comparative Compound 4, (4-isopropylphenyl) (p-tolyl)iodonium tetrakis(2,3,5,6-tetrafluoro-4′-vinyl-[1,1′-biphenyl]-4-yl) borate, reference compound], the “Solubility in Acetone” value in data set [2] (setting [3]) is given as “Dissolved”. The “Solubility in Dichloromethane” value in data set [2] (setting [4]) is recorded as “Dissolved”. Besides, the “Solubility in Toluene” value in data set [2] (setting [5]) is “Insoluble”. Moreover, the “Absorbance @ 350 nm” value in data set [1] was determined as 0.467.
For the compound `C=Cc1ccc(-c2cc(-c3ccc(C=C)cc3)cc(-c3c(F)c(F)c(-c4c(F)c(F)c([B-](c5c(F)c(F)c(C(F)(F)F)c(F)c5F)(c5c(F)c(F)c(C(F)(F)F)c(F)c5F)c5c(F)c(F)c(C(F)(F)F)c(F)c5F)c(F)c4F)c(F)c3F)c2)cc1.Cc1ccc([I+]c2ccc(C(C)C)cc2)cc1` [Compound 3, (4-isopropylphenyl) (p-tolyl)iodonium (2″,2′″,3″,13′″,5″,5′″,6″,6′″-octafluoro-4-vinyl-5′-(4-vinylphenyl)-[1,1′:3′,1″:4″,1′″-quarterphenyl]-4′″-yl)tris(2,3,5,6-tetrafluoro-4-(trifluoromethyl)phenyl)borate], in data set [2], the “Solubility in Acetone” value is “Dissolved”, the “Solubility in Dichloromethane” value is “Dissolved” and the “Solubility in Toluene” value is “Dissolved”. Further, the “Absorbance @ 350 nm” value in data set [1] was determined as 0.813.
Turning to `C=Cc1cc(C=C)cc(-c2c(F)c(F)c(-c3c(F)c(F)c([B-](c4c(F)c(F)c(C(F)(F)F)c(F)c4F)(c4c(F)c(F)c(C(F)(F)F)c(F)c4F)c4c(F)c(F)c(C(F)(F)F)c(F)c4F)c(F)c3F)c(F)c2F)c1` [Compound 5], the “Solubility in Acetone” value in data set [2] (setting [3]) is listed as “Dissolved”. Also, the “Solubility in Dichloromethane” value in data set [2] (setting [4]) is “Dissolved”. Moreover, the “Solubility in Toluene” value in data set [2] (setting [5]) is “Dissolved”. Also, the “Absorbance @ 350 nm” value in data set [1] was found to be 0.801.
As for `C=Cc1ccc(-c2c(F)c(F)c(-c3c(F)c(F)c([B-](c4c(F)c(F)c(C(F)(F)F)c(F)c4F)(c4c(F)c(F)c(C(F)(F)F)c(F)c4F)c4c(F)c(F)c(C(F)(F)F)c(F)c4F)c(F)c3F)c(F)c2F)c2ccccc12` [Compound 7], the “Absorbance @ 350 nm” value in data set [1] was determined as 0.603.
Consider `Fc1c(F)c(-c2c(F)c(F)c([B-](c3c(F)c(F)c(C(F)(F)F)c(F)c3F)(c3c(F)c(F)c(C(F)(F)F)c(F)c3F)c3c(F)c(F)c(C(F)(F)F)c(F)c3F)c(F)c2F)c(F)c(F)c1-c1ccc2c(c1)CC2` [Compound 8], for which the “Absorbance @ 350 nm” value in data set [1] amounted to 0.546.
Still for that read-out and setting: under “(4-isopropylphenyl) (p-tolyl)iodonium (2,3,5,6-tetrafluoro-4′-vinyl-[1,1′-biphenyl]-4-yl)tris(2,3,5,6-tetrafluoro-4-(trifluoromethyl)phenyl)borate [Compound 1]” stands 0.802.
